Measurements as given in BigSolDB 2.1.

Molecule `OCc1cn(Cc2ccccc2)nn1` has a solubility (mole fraction) (in ethanol, 292.15 K) of 0.0566, a solubility (mole fraction) (in ethanol, 295.15 K) of 0.0681 and a solubility (mole fraction) (in ethanol, 298.15 K) of 0.0833. For the same molecule, the solubility (mole fraction) (in ethanol, 301.15 K) was 0.103, the solubility (mole fraction) (in ethanol, 304.15 K) was 0.129 and the solubility (mole fraction) (in ethanol, 307.15 K) was 0.158. It also gave a solubility (mole fraction) (in ethanol, 310.15 K) of 0.198, a solubility (mole fraction) (in isopropanol, 292.15 K) of 0.0322 and a solubility (mole fraction) (in isopropanol, 295.15 K) of 0.039. The solubility (mole fraction) (in isopropanol, 298.15 K) was 0.047, the solubility (mole fraction) (in isopropanol, 301.15 K) was 0.0576 and the solubility (mole fraction) (in isopropanol, 304.15 K) was 0.0707. It also gave a solubility (mole fraction) (in isopropanol, 307.15 K) of 0.0889, a solubility (mole fraction) (in isopropanol, 310.15 K) of 0.112 and a solubility (mole fraction) (in methanol, 292.15 K) of 0.122. It also gave a solubility (mole fraction) (in methanol, 295.15 K) of 0.146, a solubility (mole fraction) (in methanol, 298.15 K) of 0.172 and a solubility (mole fraction) (in methanol, 301.15 K) of 0.2. The solubility (mole fraction) (in methanol, 304.15 K) was 0.222, the solubility (mole fraction) (in methanol, 307.15 K) was 0.262 and the solubility (mole fraction) (in methanol, 310.15 K) was 0.3. The solubility (mole fraction) (in n-butanol, 292.15 K) was 0.0342, the solubility (mole fraction) (in n-butanol, 295.15 K) was 0.0408 and the solubility (mole fraction) (in n-butanol, 298.15 K) was 0.0481. The solubility (mole fraction) (in n-butanol, 301.15 K) was 0.0579, the solubility (mole fraction) (in n-butanol, 304.15 K) was 0.0695 and the solubility (mole fraction) (in n-butanol, 307.15 K) was 0.0832. For the same molecule, the solubility (mole fraction) (in n-butanol, 310.15 K) was 0.1, the solubility (mole fraction) (in n-propanol, 292.15 K) was 0.0422 and the solubility (mole fraction) (in n-propanol, 295.15 K) was 0.0502. The solubility (mole fraction) (in n-propanol, 298.15 K) was 0.0607, the solubility (mole fraction) (in n-propanol, 301.15 K) was 0.0742 and the solubility (mole fraction) (in n-propanol, 304.15 K) was 0.0909. For the same molecule, the solubility (mole fraction) (in n-propanol, 307.15 K) was 0.113, the solubility (mole fraction) (in n-propanol, 310.15 K) was 0.141 and the solubility (mole fraction) (in water, 292.15 K) was 0.00147. It also gave a solubility (mole fraction) (in water, 295.15 K) of 0.0017, a solubility (mole fraction) (in water, 298.15 K) of 0.00197 and a solubility (mole fraction) (in water, 301.15 K) of 0.00237. It also gave a solubility (mole fraction) (in water, 304.15 K) of 0.0029, a solubility (mole fraction) (in water, 307.15 K) of 0.00356 and a solubility (mole fraction) (in water, 310.15 K) of 0.00433.
